Reference: article PMC9019100, “Development of NanoLuc-targeting protein degraders and a universal reporter system to benchmark tag-targeted degradation platforms” (Nature Communications, 2022)
Where “and” joins values, the source holds several entries; their conditions need not be identical. Equal entries are not always repeated. Where two headings read alike, the source gives them in different places.

Columns and labels:
wild-type HT29 cells = experiment: Necroptosis assay (PI exclusion, flow cytometry), wild-type HT29 cells, TNF+SM+IDN; format: cell-based, human; settings: sheet S5G
Method in brief: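 HT29 cells were pretreated 5 h with 500 nM degrader or DMSO, then stimulated 24 h with TNF (100 ng/mL), Smac mimetic compound A (500 nM–1 µM) and emricasan (IDN, 5 µM). Cell death was scored by flow cytometry as PI uptake (10 μg/mL PI, 10,000 events/sample), N = 3 replicates.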

[1] = target: T1, Halo-EGFP-NanoLuc-FKBP^F36V (H-E-N-F) fusion protein (UniProt P0A3G2+P62942+Q9GV45, A155T/A167V/A172T/A224E/A31E/A60N/A81I/C128F/C176G/D78G/E160K/E257K/F37V/F95D/H272N/I117V/K175M/K195N/K70R/L47V/L54V/L88M/L99Q/M102K/N193R/N227D/P142E/P291S/Q151K/Q38R/Q45L/S2A/S58T/T264A/V71I/Y165I/Y273L/Y87F); format: cell-based; settings: +dox; for Blank corrected (470-80) luminescence: single well replicates; for Blank corrected Raw Data (470-80): PROTAC 500nM, replicate wells
Target sequence in this assay (Q9GV45 other isoform, or with tags, fused parts or gaps with the stated changes): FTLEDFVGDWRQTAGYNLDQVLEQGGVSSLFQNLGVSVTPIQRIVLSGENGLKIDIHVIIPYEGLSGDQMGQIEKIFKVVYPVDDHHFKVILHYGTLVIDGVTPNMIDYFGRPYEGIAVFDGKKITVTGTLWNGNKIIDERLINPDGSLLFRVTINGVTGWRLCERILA
Target sequence in this assay (P0A3G2 other isoform, or with tags, fused parts or gaps with the stated changes): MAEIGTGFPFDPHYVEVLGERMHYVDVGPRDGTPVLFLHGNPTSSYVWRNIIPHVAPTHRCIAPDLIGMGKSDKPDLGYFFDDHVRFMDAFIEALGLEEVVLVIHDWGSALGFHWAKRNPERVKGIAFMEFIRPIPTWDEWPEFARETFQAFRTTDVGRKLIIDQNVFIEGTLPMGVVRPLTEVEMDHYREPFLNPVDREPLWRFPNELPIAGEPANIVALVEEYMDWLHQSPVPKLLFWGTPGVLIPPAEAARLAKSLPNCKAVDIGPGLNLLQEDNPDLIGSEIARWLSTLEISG
Target sequence in this assay (P62942 whole entry F37V, the tested form may be a part): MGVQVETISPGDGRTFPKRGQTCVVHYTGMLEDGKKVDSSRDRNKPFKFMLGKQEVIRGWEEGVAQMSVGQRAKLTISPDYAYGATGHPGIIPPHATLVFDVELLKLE

[2] = test system: MLKL^−/− HT29 cells expressing MLKL-FKBP^F36V; format: cell-based; settings: for TNF+911+zVAD (PI exclusion): MLKL-/- + MLKL FKBPF36V, replicate columns
Experimental: (§1) Cell death was assessed by flow cytometric analysis of PI exclusion. […] Cell death was assessed by flow cytometric analysis of PI exclusion. […] Cell death was assessed by flow cytometric analysis of PI exclusion. e N = 4, f N = 3 independent experiments (symbols), EB represent mean ± SD. g Western from MLKL^−/−CASP8^−/− HT29 cells stably expressing the doxycycline-inducible C-terminal fusion protein, MLKL-NanoLuc (MLKL-NLuc) and constitutively expressing the C-terminal fusion protein caspase-8-FKBP^F36V. […] Cell death was assessed using an IncuCyte and Cytotox-Red uptake. N = 3 independent experiments, one representative experiment shown, EB represent mean ± SD.
(§2) Degrader compounds or a DMSO vehicle control were added for 5 h, as stated in the Fig. legends. Cells were detached using Trypsin-EDTA (Merck) and resuspended in cell supernatants containing 10 μg/mL propidium iodide (PI). PI exclusion analysis was performed using an LSR II flow cytometer (Becton Dickinson, NJ) with 10,000 single-cell events per sample. Flow cytometry data were analysed using WEASEL version 2.7 software (Frank Battye).

[3] = test system: MLKL^−/− HT29 cells expressing untagged MLKL; format: cell-based; settings: MLKL-/- + MLKL, TNF+911+zVAD, replicate columns
Experimental: as §1, §2

[4] = target: T1, Halo-EGFP-NanoLuc-FKBP^F36V (H-E-N-F) fusion protein; format: cell-based; parameters: expressed in transfected cells; host or cells: immortalized mouse dermal fibroblasts (iMDFs), ubiquitin promoter, constitutive; settings: 500 nM
Target sequence in this assay (P0A3G2 other isoform, or with tags, fused parts or gaps with the stated changes): as the sequence (P0A3G2 other isoform, or with tags, fused parts or gaps with the stated changes) above
Target sequence in this assay (Q9GV45 other isoform, or with tags, fused parts or gaps with the stated changes): as the sequence (Q9GV45 other isoform, or with tags, fused parts or gaps with the stated changes) above
Target sequence in this assay (P62942 whole entry F37V, the tested form may be a part): as the sequence (P62942 whole entry F37V, the tested form may be a part) above

Fibrillarin-FKBP^F36V = target: T2, Fibrillarin-FKBP^F36V (Homo sapiens, UniProt P62942, F37V); format: cell-based; settings: 500 nM, 10 h
T2 construct: endogenous in cells; host or cells: 293T, CRISPR/PITCh knock-in at the FBL locus

[5] = test system: MLKL^−/−CASP8^−/− HT29 cells expressing MLKL-NLuc and caspase-8-FKBP^F36V; settings: TNF+SM

T2 sequence (P62942 whole entry F37V): as the sequence (P62942 whole entry F37V, the tested form may be a part) above

`CC[C@H](C(=O)N1CCCC[C@H]1C(=O)O[C@H](CCc1ccc(OC)c(OC)c1)c1ccccc1OCC(=O)NCCCCCCC(=O)N[C@H](C(=O)N1C[C@H](O)C[C@H]1C(=O)N[C@@H](C)c1ccc(-c2scnc2C)cc1)C(C)(C)C)c1cc(OC)c(OC)c(OC)c1` [FV1] was tested. Which “viable cells (PI exclusion)” value (wild-type HT29 cells; TNF+SM+IDN) did it give?
The value was 9.5 and 6.6 and 6.1.

And the “viable cells (PI exclusion)” value (wild-type HT29 cells; Unt (no death stimulus))?
Its value is 76.3 and 74.4 and 69.6.

What about the “Blank corrected (470-80) luminescence” value ([1]; 3.9nM PROTAC) of the same molecule?
Its value is 31936 and 32480 and 32608 and 31981.

And the “Blank corrected (470-80) luminescence” value ([1]; 7.8nM PROTAC)?
Its value is 24693 and 21134 and 25624 and 20591.

And the “Blank corrected (470-80) luminescence” value ([1]; 31.25nM PROTAC)?
The value was 9757 and 8948 and 8891 and 8313.

What about the “Blank corrected (470-80) luminescence” value ([1]; 62.5nM PROTAC) of the same molecule?
Its value is 5245 and 5647 and 5355 and 5575.

What about the “Blank corrected (470-80) luminescence” value ([1]; 250nM PROTAC) of the same molecule?
Its value is 2257 and 3039 and 2286 and 2469.

And the “Blank corrected (470-80) luminescence” value ([1]; 500nM PROTAC, 5h)?
The value was 3865 and 3357 and 3449 and 3849.

And the “Blank corrected (470-80) luminescence” value ([1]; 500nM PROTAC, 8h)?
Its value is 4070 and 3846 and 4184 and 2817.

And the “Blank corrected (470-80) luminescence” value ([1]; 500nM PROTAC, 24h)?
The value was 5571 and 3433 and 4739.

And the “Blank corrected (470-80) luminescence” value ([1]; 500nM PROTAC)?
Its value is 1404 and 1634 and 1510 and 1568.

And the “Blank corrected (470-80) luminescence” value ([1]; 1uM PROTAC)?
Its value is 1692 and 1683 and 1666 and 1785.

And the “Blank corrected Raw Data (470-80)” value ([1]; DMSO (control) co-treatment)?
Its value is 1481 and 2747 and 2028.

And the “Blank corrected Raw Data (470-80)” value ([1]; co-treatment with MG132 (10uM))?
The value was 32421 and 46504 and 47437 and 52425.

What about the “concentration sustaining cell survival over 24 h” value ([2]; 5 h pre-treatment, then TSZ 24 h) of the same molecule?
The value was 3.9 nM.

And the “TNF+911+zVAD (PI exclusion)” value ([2]; degrader 3.9nM)?
Its value is 77.6 and 82.1 and 75.3.

What about the “TNF+911+zVAD (PI exclusion)” value ([2]; degrader 7.8nM) of the same molecule?
The value was 84.5 and 86.7 and 79.8.

And the “TNF+911+zVAD (PI exclusion)” value ([2]; degrader 31.25nM)?
The value was 80.9 and 86.7 and 82.1.

And the “TNF+911+zVAD (PI exclusion)” value ([2]; degrader 62.5nM)?
The value was 79.4 and 87 and 83.1.

And the “TNF+911+zVAD (PI exclusion)” value ([2]; degrader 250nM)?
Its value is 80.6 and 84.5 and 80.8.

And the “TNF+911+zVAD (PI exclusion)” value ([2]; degrader 500nM)?
The value was 69.7 and 81.6 and 78.5.

And the “TNF+911+zVAD (PI exclusion)” value ([2]; degrader 1000nM)?
Its value is 63.8 and 77.3 and 74.7.

What about the “TNF+911+zVAD (PI exclusion)” value ([3]; degrader 3.9nM) of the same molecule?
Its value is 5.8 and 7 and 7.6.

And the “TNF+911+zVAD (PI exclusion)” value ([3]; degrader 7.8nM)?
The value was 6.7 and 5.9 and 5.7.

What about the “TNF+911+zVAD (PI exclusion)” value ([3]; degrader 31.25nM) of the same molecule?
The value was 5.8 and 6 and 5.7.

What about the “TNF+911+zVAD (PI exclusion)” value ([3]; degrader 62.5nM) of the same molecule?
Its value is 6.1 and 6.6 and 5.2.

What about the “TNF+911+zVAD (PI exclusion)” value ([3]; degrader 250nM) of the same molecule?
Its value is 6.3 and 5.6 and 5.3.

What about the “TNF+911+zVAD (PI exclusion)” value ([3]; degrader 500nM) of the same molecule?
Its value is 5.9 and 5.1 and 4.5.

What about the “TNF+911+zVAD (PI exclusion)” value ([3]; degrader 1000nM) of the same molecule?
The value was 5.8 and 4.9 and 5.

And the “time up to which degradation was seen, degrader left in the medium” value ([4]; 5, 24 or 48 h)?
The value was “up to 48 h”.

What about the “time up to which degradation was maintained, degrader removed at 5 h” value ([4]; 24 or 48 h after removal) of the same molecule?
Its value is “up to 48 h”.

What about the “Dmax (densitometry)” value (Fibrillarin-FKBP^F36V) of the same molecule?
The value was ~ 95.9%.

What about the “Cytotox-Red uptake (cell death), IncuCyte” value (“Cytotox-Red uptake” below) ([5]; elapsed 0 h) of the same molecule?
Its value is 162.812.

What about the “Cytotox-Red uptake” value ([5]; elapsed 0.5 h) of the same molecule?
The value was 163.75.

And the “Cytotox-Red uptake” value ([5]; elapsed 1 h)?
The value was 172.188.

And the “Cytotox-Red uptake” value ([5]; elapsed 2 h)?
Its value is 261.562.

What about the “Cytotox-Red uptake” value ([5]; elapsed 3 h) of the same molecule?
The value was 541.625.

And the “Cytotox-Red uptake” value ([5]; elapsed 4 h)?
The value was 907.75.

What about the “Cytotox-Red uptake” value ([5]; elapsed 5 h) of the same molecule?
The value was 1277.

What about the “Cytotox-Red uptake” value ([5]; elapsed 6 h) of the same molecule?
Its value is 1576.88.

What about the “Cytotox-Red uptake” value ([5]; elapsed 6.5 h) of the same molecule?
The value was 1701.5.

What about the “Cytotox-Red uptake” value ([5]; elapsed 7 h) of the same molecule?
Its value is 1872.81.

And the “Cytotox-Red uptake” value ([5]; elapsed 7.5 h)?
The value was 1974.44.

What about the “Cytotox-Red uptake” value ([5]; elapsed 8 h) of the same molecule?
Its value is 2103.31.

What about the “Cytotox-Red uptake” value ([5]; elapsed 9 h) of the same molecule?
Its value is 2328.

What about the “Cytotox-Red uptake” value ([5]; elapsed 9.5 h) of the same molecule?
Its value is 2410.25.

And the “Cytotox-Red uptake” value ([5]; elapsed 10 h)?
The value was 2505.44.

And the “Cytotox-Red uptake” value ([5]; elapsed 10.5 h)?
The value was 2578.38.

And the “Cytotox-Red uptake” value ([5]; elapsed 11 h)?
The value was 2647.

And the “Cytotox-Red uptake” value ([5]; elapsed 12 h)?
The value was 2777.19.

What about the “Cytotox-Red uptake” value ([5]; elapsed 13 h) of the same molecule?
Its value is 2864.25.

What about the “Cytotox-Red uptake” value ([5]; elapsed 13.5 h) of the same molecule?
The value was 3026.81.

And the “Cytotox-Red uptake” value ([5]; elapsed 14 h)?
Its value is 2985.5.

What about the “Cytotox-Red uptake” value ([5]; elapsed 14.5 h) of the same molecule?
Its value is 2992.62.

And the “Cytotox-Red uptake” value ([5]; elapsed 15 h)?
Its value is 3009.12.

And the “Cytotox-Red uptake” value ([5]; elapsed 16 h)?
The value was 3103.38.

What about the “Cytotox-Red uptake” value ([5]; elapsed 17 h) of the same molecule?
Its value is 3055.31.

What about the “Cytotox-Red uptake” value ([5]; elapsed 18 h) of the same molecule?
The value was 3042.38.

And the “Cytotox-Red uptake” value ([5]; elapsed 19 h)?
Its value is 3048.56.

What about the “Cytotox-Red uptake” value ([5]; elapsed 19.5 h) of the same molecule?
Its value is 3013.69.
